Values of other authors, collected in PubChem BioAssay AID1259409 (Chemical Carcinogenesis Research Information System (CCRIS), 2018).

Test system: rodent chemically induced tumor inhibition, incidence and multiplicity
Assay: CCRIS tumor inhibitor studies
Settings: Dose [Inhibitor]: 0, Promoter: NONE USED

Cn1c(=O)c2c(ncn2C)n(C)c1=O
tumour outcome (control, treated, inhibition, significance) (Carcinogen: 7,12-DIMETHYLBENZ[A]ANTHRACENE, 57-97-6, 500 MG/L IN DRINKING WATER OF 58 DAY OLD VIRGIN RATS (STUDY DURATION: 56 WK), Route [Inhibitor]: ORAL, Species: RAT, Strain/Sex: SPRAGUE-DAWLEY/FEMALE, Target Tissue: Type of Lesion: MAMMARY GLAND: FIBROADENOMA, Dose [Carcinogen]: 2 MG/100 G BW ONCE AT 55 D OF AGE): 86%, 68%, 21%, not significant
tumour outcome (control, treated, inhibition, significance) (Carcinogen: 7,12-DIMETHYLBENZ[A]ANTHRACENE, 57-97-6, 500 MG/L IN DRINKING WATER OF 150 DAY OLD PAROUS RATS (STUDY DURATION: 165 D), Route [Inhibitor]: ORAL, Species: RAT, Strain/Sex: SPRAGUE-DAWLEY/FEMALE, Target Tissue: Type of Lesion: MAMMARY GLAND: CARCINOMA, Dose [Carcinogen]: 20 MG/ML IN CORN OIL ONCE AT 135 D OF AGE): 21%, 3%, 86%, not calculated
tumour outcome (control, treated, inhibition, significance) (Carcinogen: 7,12-DIMETHYLBENZ[A]ANTHRACENE, 57-97-6, 500 MG/L IN DRINKING WATER OF 150 DAY OLD PAROUS RATS (STUDY DURATION: 165 D), Route [Inhibitor]: ORAL, Species: RAT, Strain/Sex: SPRAGUE-DAWLEY/FEMALE, Target Tissue: Type of Lesion: MAMMARY GLAND: FIBROADENOMA, Dose [Carcinogen]: 20 MG/ML IN CORN OIL ONCE AT 135 D OF AGE): 62%, 40%, 35%, not significant
tumour outcome (control, treated, inhibition, significance) (Carcinogen: 7,12-DIMETHYLBENZ[A]ANTHRACENE, 57-97-6, 500 MG/L IN DRINKING WATER OF 150 DAY OLD VIRGIN RATS (STUDY DURATION: 165 D), Route [Inhibitor]: ORAL, Species: RAT, Strain/Sex: SPRAGUE-DAWLEY/FEMALE, Target Tissue: Type of Lesion: MAMMARY GLAND: CARCINOMA, Dose [Carcinogen]: 20 MG/ML IN CORN OIL ONCE AT 135 D OF AGE): 45%, 20%, 56%, p<0.05
tumour outcome (control, treated, inhibition, significance) (Carcinogen: 7,12-DIMETHYLBENZ[A]ANTHRACENE, 57-97-6, 500 MG/L IN DRINKING WATER OF 150 DAY OLD VIRGIN RATS (STUDY DURATION: 165 D), Route [Inhibitor]: ORAL, Species: RAT, Strain/Sex: SPRAGUE-DAWLEY/FEMALE, Target Tissue: Type of Lesion: MAMMARY GLAND: FIBROADENOMA, Dose [Carcinogen]: 20 MG/ML IN CORN OIL ONCE AT 135 D OF AGE): 72%, 43%, 40%, p<0.05
tumour outcome (control, treated, inhibition, significance) (Carcinogen: 17BETA-ESTRADIOL, 50-28-2, PROGESTERONE, 57-83-0, Carcinogen: 17BETA-ESTRADIOL, 50-28-2, PROGESTERONE, 57-83-0, 500 MG/L IN DISTILLED DRINKING WATER FOR 23 WK BEGINNING 1 WK POST FIRST CARCINOGEN DOSE (STUDY DURATION: 24 WK), Route [Inhibitor]: ORAL, Species: MOUSE, Strain/Sex: GR/A/FEMALE, Target Tissue: Type of Lesion: MAMMARY GLAND: TUMOR, Dose [Carcinogen]: 0.5 MG/L 17BETA-ESTRADIOL IN DRINKING WATER FOR 24 WK AND 30 MG PROGESTERONE IN PELLETS RENEWED EVERY 30 D FOR 24 WK): 55/55 (100%), 52/55 (95%), 5%, not significant
tumour outcome (control, treated, inhibition, significance) (Carcinogen: 17BETA-ESTRADIOL, 50-28-2, PROGESTERONE, 57-83-0, Carcinogen: 17BETA-ESTRADIOL, 50-28-2, PROGESTERONE, 57-83-0, 500 MG/L IN DISTILLED DRINKING WATER FOR 23 WK BEGINNING 1 WK POST FIRST CARCINOGEN DOSE (STUDY DURATION: 24 WK), Route [Inhibitor]: ORAL, Species: MOUSE, Strain/Sex: GRS/SN/FEMALE, Target Tissue: Type of Lesion: MAMMARY GLAND: TUMOR, Dose [Carcinogen]: 0.5 MG/L 17BETA-ESTRADIOL IN DRINKING WATER FOR 24 WK AND 30 MG PROGESTERONE IN PELLETS RENEWED EVERY 30 D FOR 24 WK): 46/47 (98%), 44/45 (98%), 0%, not significant
tumour outcome (control, treated, inhibition, significance) (Carcinogen: BENZO[A]PYRENE, 50-32-8, 1 MG/D FOR 6 WK (STUDY DURATION: 9 WK), Route [Inhibitor]: GAVAGE, Species: MOUSE, Strain/Sex: NIGP(S)/FEMALE, Target Tissue: Type of Lesion: LUNG: ADENOMA, Dose [Carcinogen]: 0.5 MG INJECTED IN THE SCAPULAR REGION OF NEWBORN MICE ONCE): 35%, 21%, 40%, not calculated
tumour outcome (control, treated, inhibition, significance) (Carcinogen: BENZO[A]PYRENE, 50-32-8, 1 MG/D FOR 6 WK (STUDY DURATION: 9 WK), Route [Inhibitor]: GAVAGE, Species: MOUSE, Strain/Sex: NIGP(S)/MALE, Target Tissue: Type of Lesion: LUNG: ADENOMA, Dose [Carcinogen]: 0.5 MG INJECTED IN THE SCAPULAR REGION OF NEWBORN MICE ONCE): 48%, 18%, 63%, not calculated
tumour outcome (control, treated, inhibition, significance) (Carcinogen: BENZO[A]PYRENE, 50-32-8, 2 MG/D FOR 6 WK (STUDY DURATION: 9 WK), Route [Inhibitor]: GAVAGE, Species: MOUSE, Strain/Sex: NIGP(S)/FEMALE, Target Tissue: Type of Lesion: LUNG: ADENOMA, Dose [Carcinogen]: 0.5 MG INJECTED IN THE SCAPULAR REGION OF NEWBORN MICE ONCE): 35%, 5%, 86%, not calculated
tumour outcome (control, treated, inhibition, significance) (Carcinogen: BENZO[A]PYRENE, 50-32-8, 2 MG/D FOR 6 WK (STUDY DURATION: 9 WK), Route [Inhibitor]: GAVAGE, Species: MOUSE, Strain/Sex: NIGP(S)/MALE, Target Tissue: Type of Lesion: LUNG: ADENOMA, Dose [Carcinogen]: 0.5 MG INJECTED IN THE SCAPULAR REGION OF NEWBORN MICE ONCE): 48%, 5%, 90%, not calculated
tumour outcome (control, treated, inhibition, significance) (Carcinogen: DIETHYLNITROSAMINE, 55-18-5, 300 MG/L IN DRINKING WATER BEGINNING 3 D PRIOR TO FIRST CARCINOGEN DOSE AND CONTINUING TO 14 D POST LAST CARCINOGEN D, Route [Inhibitor]: ORAL, Species: RAT, Strain/Sex: BD6/FEMALE, Target Tissue: Type of Lesion: ESOPHAGUS: TUMOR, Dose [Carcinogen]: 80 MG/KG BW 1/WK FOR 9 WK): 50%, 54%, -8%, not significant
tumour outcome (control, treated, inhibition, significance) (Carcinogen: DIETHYLNITROSAMINE, 55-18-5, 300 MG/L IN DRINKING WATER BEGINNING 3 D PRIOR TO FIRST CARCINOGEN DOSE AND CONTINUING TO 14 D POST LAST CARCINOGEN D, Route [Inhibitor]: ORAL, Species: RAT, Strain/Sex: BD6/FEMALE, Target Tissue: Type of Lesion: LIVER: TUMOR, Dose [Carcinogen]: 80 MG/KG BW 1/WK FOR 9 WK): 100%, 95%, 5%, not significant
